Source: US7544664B2, “Sequences facilitating penetration of a substance of interest” (priority 2003, dated 2009)
Where two headings read alike, the source gives them in different places. Where a SMILES comes first, the peptide text is derived from it. The star is where a group is joined. X1 = C[C@@H]1[C@H](O)[C@@H](C)/C=C/C=C/C=C/C=C/C=C/C=C/C=C/[C@H](O[C@@H]2O[C@H](C)[C@@H](O)[C@H](NC(=O)CCCCCN3C(=O)CC(*)C3=O)[C@@H]2O)C[C@@H]2O[C@](O)(C[C@@H](O)C[C@@H](O)[C@H](O)CC[C@@H](O)C[C@@H](O)CC(=O)O[C@H]1C)C[C@H](O)[C@H]2C(=O)O; X2 = O=C(CCCCCN1C(=O)CC(*)C1=O)OCCOC(=O)CCCc1ccc(N(CCCl)CCCl)cc1

Assays:
[1] = tested on: HCT116: human colon carcinoma; assay: cells; assay type: cell-based; conditions: for IC50: read-out: IC50 values; for more efficient than Chl: HCT116 colon carcinoma
Protocol: HCT116: human colon carcinoma (origin: ATCC #CCL-247)
(§1) Viability assays were performed. Briefly, cells are seeded in 96-well plates and incubated with increasing concentrations of drugs (i) for 1 hour then cells are rinsed and incubated with fresh medium without drugs for 48 hours, or (ii) for 48 hours. A WST-1 test (from Roche) was performed and IC50 values (drug concentration that inhibits 50% of cell viability) were estimated from sigmoidal regressions.
(§2) DPV15-E-Chl conjugate was compared to non-conjugated Chl and 5FUra for the inhibition of in vitro cell proliferation of human carcinoma and leukemia cells. We calculated IC50 values=drug concentration that inhibits 50% of cell viability.

[2] = tested on: HT29: human colon carcinoma; assay: cells; assay type: cell-based; conditions: for IC50: read-out: IC50 values
Protocol: HT29: human colon carcinoma, low P-gp expression (origin: ATCC #HTB-38)
as §1, §2

[3] = Solubility in water / aqueous solutions
[4] = Stability in H2O+0.1% TFA overnight at room temperature; assay type: physicochemical; conditions: protected from light, Chl 0.1 mg/ml, DPV15-E-Chl 0.5 mg/ml in H2O+0.1% TFA
Protocol: After overnight incubation at room temperature and protected from light, both Chl (0.1 mg/ml in H2O+0.1% TFA) and DPV15-E-Chl (0.5 mg/ml in H2O+0.1% TFA) are degraded (50% degradation).

[5] = tested on: K562: human chronic myelogenous leukemia; assay: Viability assay (WST-1); assay type: cell-based
Protocol: K562: human chronic myelogenous leukemia (CML) (origin: ATCC #CCL-243).
as §1, §2

[6] = tested on: Candida albicans (ATCC 90028); assay: Lethal murine candidiasis model; assay type: in vivo, mice; conditions: single i.v. 3 hours after inoculation
Protocol: Test substances (DPV15-AmB and AmB (Fungizone)) and vehicule control were administrated i.v. with doses ranging from 0.25 mg/kg to 2.5 mg/kg AmB equivalent to test animals 3 hours after the fungal inoculation. Mortality was recorded once daily for 8 days.

[7] = Single dose toxicity, intravenous injection; assay type: in vivo, mice
Protocol: The single dose toxicity of the DPV15-AmB conjugate was assessed by mortality and/or body weight loss after a single dose intravenous injection. Mice were treated with DPV15-AmB 2.57, 3.68, 5.52, 7.36, 9.2, 18.4 and 36.8 mg/kg with vehicle (NaCl/H2O 9/1 v/v). These different doses correspond to 0.7, 1, 1.5, 2, 2.5, 5 and 10 mg/kg of AMB respectively. The dose of 1 mg/kg corresponds to the MTD of AmB exposed in the literature (Tabosa Do Egito et al., In-vitro and In-vivo evaluation of a new amphothericin B emulsion-based delivery system. J Antimicrob Vhemother. 1996 September; 38(3):485-97).

[8] = HCT116 colon, 1 h incubation + 48 h
[9] = HT29 colon, 1 h incubation + 48 h
[10] = HT29 colon carcinoma, short exposure

O=c1[nH]cc(F)c(=O)[nH]1 [5FUra]
IC50 [1, 8]: 113 ± 40 µM
IC50 ([1]; HCT116 colon, 48 h incubation): 8.5 ± 7.9 µM
IC50 [2, 9]: > 1000 µM
IC50 ([2]; HT29 colon, 48 h incubation): 725 ± 388 µM

O=C(O)CCCc1ccc(N(CCCl)CCCl)cc1 [Chl, Chlorambucil]
Solubility in water / aqueous solutions [3]: not soluble
IC50 ([1]; Homo sapiens, HCT-116, 48 h): 200 ± 70 µM
degradation after overnight incubation [4]: 50%
IC50 ([2]; Homo sapiens, HT-29, 48 h): 250 ± 70 µM
IC50 ([5]; Homo sapiens, 1 h incubation + 48 h): > 500 µM
IC50 ([5]; Homo sapiens, 48 h incubation): 250 ± 70 µM

CC(C)C[C@H](NC(=O)[C@H](CCCNC(=N)N)NC(=O)[C@H](CO)NC(=O)[C@H](CCC(N)=O)NC(=O)[C@H](CCCNC(=N)N)NC(=O)[C@H](CCC(=O)O)NC(=O)[C@H](CCCNC(=N)N)NC(=O)[C@H](CCCNC(=N)N)NC(=O)[C@@H](N)CC(C)C)C(=O)N[C@@H](CCCNC(=N)N)C(=O)N[C@@H](CCCNC(=N)N)C(=O)N[C@@H](CCC(=O)O)C(=O)N[C@@H](CCCNC(=N)N)C(=O)N[C@@H](CCC(N)=O)C(=O)N[C@@H](CO)C(=O)N[C@@H](CCCNC(=N)N)C(=O)N[C@@H](CSC1CC(=O)N(CCCCCC(=O)N[C@@H]2[C@H](O)[C@H](O[C@H]3/C=C/C=C/C=C/C=C/C=C/C=C/C=C/[C@H](C)[C@@H](O)[C@@H](C)[C@H](C)OC(=O)C[C@H](O)C[C@H](O)CC[C@@H](O)[C@H](O)C[C@H](O)C[C@]4(O)C[C@H](O)[C@@H](C(=O)O)[C@H](C3)O4)O[C@H](C)[C@H]2O)C1=O)C(=O)O (stereo partly shown) [DPV15-AmB] (H-LRRERQSRLRRERQSRC(X1)-OH)
survival on day 8 ([6]; 0.5 mg/kg AmB equivalent): 50%
survival on day 8 ([6]; 1 mg/kg AmB equivalent): 50%
mortality ([7]; 18.4 mg/kg, 24 hours after the injection): 1 mouse was found dead
loss of initial body weight ([7]; 18.4 mg/kg, two surviving mice, 24 hours after the injection): about 12%
Acute lethal toxicity ([7]; 36.8 mg/kg (10 mg/kg of AMB), single i.v.): observed
effect on the body weight at Day 28 ([7]; 2.57, 3.68, 5.52, 7.36 and 9.2 mg/kg, single i.v.): no effect
MTD at 28 day ([7]; mouse, in vivo, iv, single i.v., conjugate dose, read-out: maximal tolerated dose): 9.2 to 18.4 mg/kg

CC(C)C[C@H](NC(=O)[C@H](CCCNC(=N)N)NC(=O)[C@H](CO)NC(=O)[C@H](CCC(N)=O)NC(=O)[C@H](CCCNC(=N)N)NC(=O)[C@H](CCC(=O)O)NC(=O)[C@H](CCCNC(=N)N)NC(=O)[C@H](CCCNC(=N)N)NC(=O)[C@@H](N)CC(C)C)C(=O)N[C@@H](CCCNC(=N)N)C(=O)N[C@@H](CCCNC(=N)N)C(=O)N[C@@H](CCC(=O)O)C(=O)N[C@@H](CCCNC(=N)N)C(=O)N[C@@H](CCC(N)=O)C(=O)N[C@@H](CO)C(=O)N[C@@H](CCCNC(=N)N)C(=O)N[C@@H](CSC1CC(=O)N(CCCCCC(=O)OCCOC(=O)CCCc2ccc(N(CCCl)CCCl)cc2)C1=O)C(=O)O (stereo partly shown) [DPV15-E-Chl] (H-LRRERQSRLRRERQSRC(X2)-OH)
solubility [3]: ≥ 10000 µg/mL
more efficient than Chl ([1]; long exposure): 8 fold
more efficient than Chl ([1]; short exposure): 12 fold
IC50 [1, 8]: 43 ± 15 µM
IC50 ([1]; HCT116 colon, 48 h incubation): 25 ± 7 µM
degradation after overnight incubation [4]: 50%
more efficient than 5FUra [2, 10]: ≥ 17 fold
more efficient than Chl [2, 10]: 11 fold
IC50 [2, 9]: 60 µM
IC50 ([2]; HT29 colon, 48 h incubation): 325 µM
IC50 ([5]; 1 h incubation + 48 h): 30 µM
IC50 ([5]; 48 h incubation): 30 µM
more efficient than Chl ([5]; long exposure): 8 fold
more efficient than Chl ([5]; short exposure): ≥ 16 fold
